# Starred links: 1 amine or outer side, 2 acyl side, 3 side chain; linkers in the order of their positions; H or OH if unused. Positions of bridges follow the written chain, without caps; N, C: chain ends. Residues, ends and D or L forms follow the SMILES beside them. *: point of attachment. C20 diacid = O=C(O)CCCCCCCCCCCCCCCCCCC(=O)*; γGlu = O=C(O)[C@H](CCC(=O)[*:2])N[*:1]
# What was measured:
# Assay type in all cases: cell-based
# [1] = molecular target: T1, rat calcitonin (a) receptor (Rattus norvegicus, UniProt P32214); assay: Assay (II)b functional cAMP FlashPlate assay, rat calcitonin receptor; details: Table 11; read-out: CTa receptor rat EC50
# T1 construct: expressed in transfected cells; host or cells: BHK tk'ts 13
# T1 sequence (P32214 25-479 isoform P32214-2 limits assumed): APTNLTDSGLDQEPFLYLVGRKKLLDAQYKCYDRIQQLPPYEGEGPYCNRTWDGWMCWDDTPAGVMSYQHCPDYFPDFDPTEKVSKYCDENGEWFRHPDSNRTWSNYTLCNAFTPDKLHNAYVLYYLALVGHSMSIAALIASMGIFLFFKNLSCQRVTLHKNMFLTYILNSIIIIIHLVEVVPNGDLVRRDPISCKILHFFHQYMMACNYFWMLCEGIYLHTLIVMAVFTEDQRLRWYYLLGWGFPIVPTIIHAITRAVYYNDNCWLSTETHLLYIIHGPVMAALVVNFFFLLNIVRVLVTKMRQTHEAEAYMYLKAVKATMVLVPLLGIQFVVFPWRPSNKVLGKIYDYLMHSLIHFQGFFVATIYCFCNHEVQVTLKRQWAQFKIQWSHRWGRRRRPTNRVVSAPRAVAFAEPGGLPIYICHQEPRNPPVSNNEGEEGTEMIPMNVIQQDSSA
# How it was run: (§1)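 cAMP accumulation in transiently transfected BHK tk'ts 13 cells, 100.000 cells/well, expressing rat calcitonin(a) receptor or its RAMP3 co-expression form (amylin 3(a)): 30 min stimulation with IBMX, 24 hours post-transfection. Readout by competition of cellular versus radiolabelled cAMP in FlashPlates, scintillation counted after 3 h.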
# [2] = molecular target: T2, rat amylin 3(a) receptor (rat calcitonin(a) receptor + rat RAMP3) (Rattus norvegicus, UniProt P32214+Q9JJ73); assay: Assay (II)b functional cAMP FlashPlate assay, rat amylin receptor; details: Table 11
# T2 construct: expressed in transfected cells; host or cells: BHK tk'ts 13
# T2 sequence (P32214 25-479 isoform P32214-2 limits assumed): T1 sequence (P32214 25-479 isoform P32214-2 limits assumed)
# T2 sequence (Q9JJ73 23-147 partner): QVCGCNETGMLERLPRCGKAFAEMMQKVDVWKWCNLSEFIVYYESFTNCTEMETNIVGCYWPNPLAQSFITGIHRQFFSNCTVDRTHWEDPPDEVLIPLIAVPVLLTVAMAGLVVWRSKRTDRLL
# How it was run: as §1
# [3] = molecular target: T3, human calcitonin receptor (Homo sapiens, UniProt P30988); assay: Assay (II)a functional CRE-luciferase assay, human calcitonin receptor; details: Table 7; human calcitonin (CTa) receptor
# T3 construct: expressed in transfected cells; host or cells: BHK570
# T3 sequence (P30988 25-474): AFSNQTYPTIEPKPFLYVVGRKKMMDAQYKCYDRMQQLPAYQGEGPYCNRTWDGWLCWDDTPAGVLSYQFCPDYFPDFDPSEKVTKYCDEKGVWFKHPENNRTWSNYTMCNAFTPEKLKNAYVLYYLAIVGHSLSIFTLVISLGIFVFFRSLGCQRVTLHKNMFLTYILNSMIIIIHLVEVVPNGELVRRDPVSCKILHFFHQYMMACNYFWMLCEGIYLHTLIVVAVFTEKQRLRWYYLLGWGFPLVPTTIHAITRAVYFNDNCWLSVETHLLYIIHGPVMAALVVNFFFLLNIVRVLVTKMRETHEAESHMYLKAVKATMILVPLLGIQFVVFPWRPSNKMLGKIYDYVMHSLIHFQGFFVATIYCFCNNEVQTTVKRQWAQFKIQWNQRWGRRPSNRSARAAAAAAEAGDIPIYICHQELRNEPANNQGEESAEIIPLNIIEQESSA
SMILES,EC50 [1],EC50 [2],EC50 [3]
"CC[C@H](C)[C@H](NC(=O)[C@@H]1CCCN1C(=O)CNC(=O)[C@H](Cc1ccccc1)NC(=O)[C@H](CC(N)=O)NC(=O)[C@H](CC(N)=O)NC(=O)[C@H](CO)NC(=O)[C@H](CO)NC(=O)[C@H](Cc1c[nH]cn1)NC(=O)[C@H](Cc1c[nH]cn1)NC(=O)[C@H](CC(C)C)NC(=O)[C@H](Cc1ccccc1)NC(=O)[C@H](CCC(=O)O)NC(=O)[C@H](C)NC(=O)[C@H](CC(C)C)NC(=O)[C@H](CCCNC(=N)N)NC(=O)[C@H](CCC(N)=O)NC(=O)[C@@H](NC(=O)[C@H](C)NC(=O)[C@@H]1CSSC[C@H](NC(=O)[C@H](CCCCN)NC(=O)[C@H](CCC(=O)O)NC(=O)CC[C@H](NC(=O)CCCCCCCCCCCCCCCCCCC(=O)O)C(=O)O)C(=O)N[C@@H](CC(N)=O)C(=O)N[C@@H]([C@@H](C)O)C(=O)N[C@@H](C)C(=O)N[C@@H]([C@@H](C)O)C(=O)N1)[C@@H](C)O)C(=O)N[C@@H](CC(C)C)C(=O)N1CCC[C@H]1C(=O)N1CCC[C@H]1C(=O)N[C@H](C(=O)N[C@@H](CC(N)=O)C(=O)N[C@H](C(=O)NCC(=O)N[C@@H](CO)C(=O)N[C@@H](CC(N)=O)C(=O)N[C@H](C(=O)N[C@@H](Cc1ccc(O)cc1)C(N)=O)[C@@H](C)O)C(C)C)[C@@H](C)O [Example 26, N-alpha-[(S)-4-Carboxy-4-(19-carboxynonadecanoylamino)butyryl]-Glu-[Glu14,His17]-pramlintide] ({C20 diacid-γGlu}-EKCNTATCATQRLAEFLHHSSNNFGPILPPTNVGSNTY-NH2; disulfide 3-8 (inferred); C-terminus assumed)",1.39 nM,0.476 nM,0.214 nM
"CC[C@H](C)[C@H](NC(=O)[C@@H]1CCCN1C(=O)CNC(=O)[C@H](Cc1ccccc1)NC(=O)[C@H](CC(N)=O)NC(=O)[C@H](CC(N)=O)NC(=O)[C@H](CO)NC(=O)[C@H](CO)NC(=O)[C@H](CCCNC(=N)N)NC(=O)[C@H](Cc1c[nH]cn1)NC(=O)[C@H](CC(C)C)NC(=O)[C@H](Cc1ccccc1)NC(=O)[C@H](CCC(=O)O)NC(=O)[C@H](C)NC(=O)[C@H](CC(C)C)NC(=O)[C@H](CCCNC(=N)N)NC(=O)[C@H](CCC(N)=O)NC(=O)[C@@H](NC(=O)[C@H](C)NC(=O)[C@@H]1CSSC[C@H](NC(=O)[C@H](CCC(=O)O)NC(=O)CC[C@H](NC(=O)CCCCCCCCCCCCCCCCCCC(=O)O)C(=O)O)C(=O)N[C@@H](CC(N)=O)C(=O)N[C@@H]([C@@H](C)O)C(=O)N[C@@H](C)C(=O)N[C@@H]([C@@H](C)O)C(=O)N1)[C@@H](C)O)C(=O)N[C@@H](CC(C)C)C(=O)N1CCC[C@H]1C(=O)N1CCC[C@H]1C(=O)N[C@H](C(=O)N[C@@H](CC(N)=O)C(=O)N[C@H](C(=O)NCC(=O)N[C@@H](CO)C(=O)N[C@@H](CC(N)=O)C(=O)N[C@H](C(=O)N1CCC[C@H]1C(N)=O)[C@@H](C)O)C(C)C)[C@@H](C)O [Example 10, N-alpha-[(S)-4-Carboxy-4-(19-carboxynonadecanoylamino)butyryl]-[Glu1,Glu14,His17,Arg18,Pro37]-pramlintide] ({C20 diacid-γGlu}-ECNTATCATQRLAEFLHRSSNNFGPILPPTNVGSNTP-NH2; disulfide 2-7)",0.806 nM,0.374 nM,0.0864 nM
"CC[C@H](C)[C@H](NC(=O)[C@@H]1CCCN1C(=O)CNC(=O)[C@H](Cc1ccccc1)NC(=O)[C@H](CC(N)=O)NC(=O)[C@H](CC(N)=O)NC(=O)[C@H](CO)NC(=O)[C@H](CO)NC(=O)[C@H](Cc1c[nH]cn1)NC(=O)[C@H](Cc1c[nH]cn1)NC(=O)[C@H](CC(C)C)NC(=O)[C@H](Cc1ccccc1)NC(=O)[C@H](CCC(=O)O)NC(=O)[C@H](C)NC(=O)[C@H](CC(C)C)NC(=O)[C@H](CCCNC(=N)N)NC(=O)[C@H](CCC(N)=O)NC(=O)[C@@H](NC(=O)[C@H](C)NC(=O)[C@@H]1CSSC[C@H](NC(=O)[C@H](Cc2c[nH]cn2)NC(=O)[C@H](Cc2c[nH]cn2)NC(=O)[C@H](Cc2c[nH]cn2)NC(=O)CC[C@H](NC(=O)CCCCCCCCCCCCCCCCCCC(=O)O)C(=O)O)C(=O)N[C@@H](Cc2c[nH]cn2)C(=O)N[C@@H]([C@@H](C)O)C(=O)N[C@@H](C)C(=O)N[C@@H]([C@@H](C)O)C(=O)N1)[C@@H](C)O)C(=O)N[C@@H](CC(C)C)C(=O)N1CCC[C@H]1C(=O)N1CCC[C@H]1C(=O)N[C@H](C(=O)N[C@@H](CC(N)=O)C(=O)N[C@H](C(=O)NCC(=O)N[C@@H](CO)C(=O)N[C@@H](Cc1c[nH]cn1)C(=O)N[C@H](C(=O)N[C@@H](Cc1ccc(O)cc1)C(N)=O)[C@@H](C)O)C(C)C)[C@@H](C)O [Example 32, N-alpha-[(S)-4-Carboxy-4-(19-carboxynonadecanoylamino)butyryl]-His-His-[His1,His3,Glu14,His17,His35]-pramlintide] ({C20 diacid-γGlu}-HHHCHTATCATQRLAEFLHHSSNNFGPILPPTNVGSHTY-NH2; disulfide 4-9 (inferred))",4.87 nM,0.401 nM,0.543 nM
"CC[C@H](C)[C@H](NC(=O)[C@@H]1CCCN1C(=O)CNC(=O)[C@H](Cc1ccccc1)NC(=O)[C@H](CC(N)=O)NC(=O)[C@H](CC(N)=O)NC(=O)[C@H](CO)NC(=O)[C@H](CO)NC(=O)[C@H](Cc1c[nH]cn1)NC(=O)[C@H](CCCNC(=N)N)NC(=O)[C@H](CC(C)C)NC(=O)[C@H](Cc1ccccc1)NC(=O)[C@H](CCC(=O)O)NC(=O)[C@H](C)NC(=O)[C@H](CC(C)C)NC(=O)[C@H](CCCNC(=N)N)NC(=O)[C@H](CCC(N)=O)NC(=O)[C@@H](NC(=O)[C@H](C)NC(=O)[C@@H]1CSSC[C@H](NC(=O)[C@H](CCCCN)NC(=O)[C@H](CCC(=O)O)NC(=O)CC[C@H](NC(=O)CCCCCCCCCCCCCCCCCCC(=O)O)C(=O)O)C(=O)N[C@@H](CC(N)=O)C(=O)N[C@@H]([C@@H](C)O)C(=O)N[C@@H](C)C(=O)N[C@@H]([C@@H](C)O)C(=O)N1)[C@@H](C)O)C(=O)N[C@@H](CC(C)C)C(=O)N1CCC[C@H]1C(=O)N1CCC[C@H]1C(=O)N[C@H](C(=O)N[C@@H](CC(N)=O)C(=O)N[C@H](C(=O)NCC(=O)N[C@@H](CO)C(=O)N[C@@H](Cc1c[nH]cn1)C(=O)N[C@H](C(=O)N[C@@H](Cc1ccc(O)cc1)C(N)=O)[C@@H](C)O)C(C)C)[C@@H](C)O [Example 58, N-alpha-[(S)-4-Carboxy-4-(19-carboxynonadecanoylamino)butyryl]-Glu-[Glu14,Arg17,His35]-pramlintide] ({C20 diacid-γGlu}-EKCNTATCATQRLAEFLRHSSNNFGPILPPTNVGSHTY-NH2; disulfide 3-8 (inferred); C-terminus assumed)",2.23 nM,0.063 nM,0.606 nM

# Reference: patent US8722849B2, “Polypeptides” (Novo Nordisk A/S, priority 2011, dated 2014)
